# Results: patent US7503965B2, “Azo compound, ink composition, and colored object” (Nippon Kayaku Kabushiki Kaisha, priority 2004, dated 2009)
# Assay: solubility in water (ammonia alkali) by filter paper spot
# Format: physicochemical
# Details: aqueous buffer
row,Structure (SMILES),solubility [mg/mL]
1,Nc1c(N=Nc2ccc3c(O)c(N=Nc4ccc(S(=O)(=O)O)c(/N=N/c5c(C(=O)O)nn(-c6ccc(S(=O)(=O)O)cc6)c5O)c4)c(S(=O)(=O)O)cc3c2S(=O)(=O)O)cc(S(=O)(=O)O)c2cc(S(=O)(=O)O)c(N=Nc3ccc([N+](=O)[O-])cc3S(=O)(=O)O)c(O)c12 [compound 13],≥ 100
2,Nc1c(N=Nc2ccc3c(O)c(N=Nc4ccc(N=Nc5c(C(=O)O)nn(-c6cc(S(=O)(=O)O)ccc6S(=O)(=O)O)c5O)c(S(=O)(=O)O)c4)c(S(=O)(=O)O)cc3c2S(=O)(=O)O)cc(S(=O)(=O)O)c2cc(S(=O)(=O)O)c(N=Nc3ccc([N+](=O)[O-])cc3S(=O)(=O)O)c(O)c12 [compound 21],≥ 100
3,Nc1c(N=Nc2ccc3c(O)c(N=Nc4cc(S(=O)(=O)O)c(N=Nc5c(C(=O)O)nn(-c6ccc(S(=O)(=O)O)cc6)c5O)cc4S(=O)(=O)O)c(S(=O)(=O)O)cc3c2S(=O)(=O)O)cc(S(=O)(=O)O)c2cc(S(=O)(=O)O)c(N=Nc3ccc(S(=O)(=O)O)cc3[N+](=O)[O-])c(O)c12 [compound 23],≥ 100
4,Nc1c(N=Nc2ccc3c(O)c(N=Nc4ccc(N=Nc5c(C(=O)O)nn(-c6ccc(S(=O)(=O)O)cc6)c5O)c(S(=O)(=O)O)c4)c(S(=O)(=O)O)cc3c2S(=O)(=O)O)cc(S(=O)(=O)O)c2cc(S(=O)(=O)O)c(N=Nc3ccc(S(=O)(=O)O)cc3[N+](=O)[O-])c(O)c12 [compound 22],≥ 100
5,Nc1c(N=Nc2ccc3c(O)c(N=Nc4cc(S(=O)(=O)O)c(N=Nc5c(C(=O)O)nn(-c6ccc(S(=O)(=O)O)cc6)c5O)cc4S(=O)(=O)O)c(S(=O)(=O)O)cc3c2S(=O)(=O)O)cc(S(=O)(=O)O)c2cc(S(=O)(=O)O)c(N=Nc3ccc([N+](=O)[O-])cc3S(=O)(=O)O)c(O)c12 [compound 9],≥ 100
6,COc1cc([N+](=O)[O-])c(S(=O)(=O)O)cc1N=Nc1c(S(=O)(=O)O)cc2c(S(=O)(=O)O)cc(N=Nc3ccc4c(O)c(N=Nc5ccc(N=Nc6c(C(=O)O)nn(-c7ccc(S(=O)(=O)O)cc7)c6O)c(S(=O)(=O)O)c5)c(S(=O)(=O)O)cc4c3S(=O)(=O)O)c(N)c2c1O [compound 24],≥ 100
7,Nc1c(N=Nc2ccc3c(O)c(N=Nc4ccc(N=Nc5c(C(=O)O)nn(-c6cc(C(=O)O)cc(C(=O)O)c6)c5O)c(S(=O)(=O)O)c4)c(S(=O)(=O)O)cc3c2S(=O)(=O)O)cc(S(=O)(=O)O)c2cc(S(=O)(=O)O)c(N=Nc3ccc([N+](=O)[O-])cc3S(=O)(=O)O)c(O)c12 [compound 27],≥ 100

# Further lines, results first:
row,solubility [mg/mL],Structure (SMILES)
1,≥ 100,Nc1c(N=Nc2ccc3c(O)c(N=Nc4cc(Cl)c(N=Nc5c(C(=O)O)nn(-c6ccc(S(=O)(=O)O)cc6)c5O)c(S(=O)(=O)O)c4)c(S(=O)(=O)O)cc3c2S(=O)(=O)O)cc(S(=O)(=O)O)c2cc(S(=O)(=O)O)c(N=Nc3ccc([N+](=O)[O-])cc3S(=O)(=O)O)c(O)c12 [compound 25]
2,≥ 100,Nc1c(N=Nc2ccc3c(O)c(N=Nc4cc(C(=O)O)c(N=Nc5c(C(=O)O)nn(-c6ccc(S(=O)(=O)O)cc6)c5O)c(S(=O)(=O)O)c4)c(S(=O)(=O)O)cc3c2S(=O)(=O)O)cc(S(=O)(=O)O)c2cc(S(=O)(=O)O)c(N=Nc3ccc([N+](=O)[O-])cc3S(=O)(=O)O)c(O)c12 [compound 26]
3,≥ 100,Nc1c(N=Nc2ccc3c(O)c(N=Nc4ccc(N=Nc5c(C(=O)O)nn(-c6ccc(S(=O)(=O)O)cc6)c5O)c(S(=O)(=O)O)c4)c(S(=O)(=O)O)cc3c2S(=O)(=O)O)cc(S(=O)(=O)O)c2cc(S(=O)(=O)O)c(N=Nc3ccc([N+](=O)[O-])cc3S(=O)(=O)O)c(O)c12 [compound 1]
